Results on eight molecules are retold here after PubChem BioAssay (NCI).

The structures appear in SMILES notation. “And” between values parts separate entries of the source, which are not always exact repeats. Equal entries are not always repeated.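 Method: 48-hour compound exposure of cells in 96-well plates, five concentrations, linear interpolation of endpoints. Here, GI50 denotes the concentration required for 50% inhibition of growth. TGI: concentration producing complete growth inhibition.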 Bounds are passed on as bounds.

Among the test systems are MDA-MB-231 breast; SK-MEL-2 melanoma; SF-539 CNS; DU-145 prostate; MDA-MB-435; T-47D breast; UACC-257 melanoma; OVCAR-3 ovarian; HOP-62 NSCLC; HCT-116 colon.
What all share (assay): growth of human tumour cells (NCI), 48 h

As for `CCOC(=O)c1c(CN2CCCCC2)nc2ccc(Cl)cc2c1-c1ccccc1`, the GI50 with MDA-MB-231 breast was 15.9 µM; in the experiment on SK-MEL-2 melanoma it was 18.9 µM; with SF-539 CNS, 26.7 µM; in the experiment on DU-145 prostate, 32.5 µM; in the experiment with MDA-MB-435 it was 35.1 µM; with T-47D breast it was 17.1 µM. The GI50 was 22.4 µM in the experiment with UACC-257 melanoma, 17.7 µM in the experiment with OVCAR-3 ovarian, 23.9 µM in the experiment with HOP-62 NSCLC and 15.6 µM in the experiment with HCT-116 colon. The TGI in the experiment on MDA-MB-231 breast is 35 µM; in the experiment with SK-MEL-2 melanoma it was 40.6 µM; in the experiment on SF-539 CNS it was 66.2 µM; in the experiment with DU-145 prostate, > 100 µM; with MDA-MB-435, > 100 µM; with T-47D breast, 49.1 µM. For the same molecule, the TGI with UACC-257 melanoma is 56.5 µM; in the experiment on OVCAR-3 ovarian, 38.1 µM; in the experiment on HOP-62 NSCLC, 56.5 µM; in the experiment with HCT-116 colon, 37 µM.
`COc1cc(OC)c(/C=C/S(=O)(=O)Cc2ccc(OC)c(N)n2)c(OC)c1`: the GI50 with MDA-MB-231 breast is < 0.0248 µM; with SF-539 CNS it was < 0.01 µM; in the experiment on DU-145 prostate it was < 0.01 µM; in the experiment on MDA-MB-435, < 0.01 µM; in the experiment on T-47D breast, 57.3 µM; in the experiment on UACC-257 melanoma, > 100 µM. Moreover, the GI50 in the experiment with OVCAR-3 ovarian, with HOP-62 NSCLC and in the experiment on HCT-116 colon was < 0.01 µM in each case. The TGI is > 100 µM in the experiment on MDA-MB-231 breast; > 100 µM in the experiment with SK-MEL-2 melanoma; < 0.01 µM in the experiment on SF-539 CNS; > 100 µM in the experiment on DU-145 prostate; < 0.01 µM with MDA-MB-435; > 100 µM in the experiment on T-47D breast. Also, the TGI was > 100 µM in the experiment with UACC-257 melanoma, < 0.01 µM in the experiment with OVCAR-3 ovarian, > 100 µM in the experiment on HOP-62 NSCLC and > 100 µM with HCT-116 colon.
For the molecule `COc1cccc(/C=C\C(=O)c2ccccc2)c1`, the GI50 in the experiment on MDA-MB-231 breast is 17.1 µM; in the experiment on SK-MEL-2 melanoma, 18 µM; in the experiment with SF-539 CNS it was 10.7 µM; in the experiment on DU-145 prostate, 4.73 µM; with MDA-MB-435 it was 11.9 µM; with T-47D breast, 9.72 µM. The GI50 was 17.7 µM in the experiment with UACC-257 melanoma, 3.04 µM in the experiment on OVCAR-3 ovarian, 20.2 µM in the experiment on HOP-62 NSCLC and 2.66 µM in the experiment with HCT-116 colon. Besides, the TGI in the experiment with MDA-MB-231 breast came out at 36.2 µM; in the experiment on SK-MEL-2 melanoma, 34.8 µM; in the experiment with SF-539 CNS, 24.1 µM; in the experiment on DU-145 prostate, 20.5 µM; with MDA-MB-435, 27.8 µM; with T-47D breast, 41.3 µM. The TGI in the experiment with UACC-257 melanoma came out at 33.3 µM; with OVCAR-3 ovarian, 13.4 µM; in the experiment with HOP-62 NSCLC, 42.1 µM; in the experiment with HCT-116 colon, 8.27 µM.
Regarding `CCOC(=O)Nc1cc2c(c(N)n1)N=C(c1ccc(Cl)cc1Cl)CN2`, the TGI with MDA-MB-231 breast was 16.2 µM; with SK-MEL-2 melanoma, 19.7 µM; with SF-539 CNS it was 0.0475 µM; in the experiment with DU-145 prostate it was 13.3 µM; with MDA-MB-435, < 0.0239 µM; with T-47D breast, 43.1 µM. Moreover, the TGI in the experiment on UACC-257 melanoma was 90.6 µM; with OVCAR-3 ovarian it was 0.0133 µM; with HOP-62 NSCLC, 19.8 µM; with HCT-116 colon, 12.7 µM.
For the molecule `COc1cc2c(cc1O)CCN[C@@]21CS[C@H]2c3c(OC(C)=O)c(C)c4c(c3C(COC1=O)N1C2C2NC(Cc3cc(C)c(OC)c(O)c32)[C@@H]1O)OCO4` (stereo partly drawn), the TGI in the experiment with MDA-MB-231 breast was < 0.01 µM; with SK-MEL-2 melanoma it was < 10 nM and 0.0045 µg/mL; in the experiment with SF-539 CNS, < 10 nM and 0.0045 µg/mL; in the experiment with DU-145 prostate it was 11 µM; in the experiment with MDA-MB-435, < 0.01 µM; with T-47D breast, 0.0453 µM. Besides, the TGI with UACC-257 melanoma is 14.7 nM and 2.1e-07 µg/mL; in the experiment on OVCAR-3 ovarian it was 0.00531 ng/mL; in the experiment on HOP-62 NSCLC, < 10 nM and 3.8e-07 µg/mL and 0.0045 µg/mL; with HCT-116 colon, 11.9 µM and 4.86 µg/mL. Moreover, the GI50 in the experiment on SK-MEL-2 melanoma was 4.5 ng/mL; in the experiment on SF-539 CNS, 4.5 ng/mL; in the experiment on OVCAR-3 ovarian, 0.000341 ng/mL; in the experiment with HCT-116 colon it was 4.5 ng/mL.
`COc1cc([C@H]2OC[C@@H]3C(c4cc(OC)c5c(c4)OCO5)OC[C@H]23)cc(OC)c1OC` (stereo partly drawn): the TGI in the experiment with MDA-MB-231 breast, in the experiment on SK-MEL-2 melanoma, with SF-539 CNS, in the experiment on DU-145 prostate, with MDA-MB-435 and in the experiment on T-47D breast was > 100 µM in each case. Moreover, the TGI in the experiment on UACC-257 melanoma, in the experiment on OVCAR-3 ovarian, in the experiment with HOP-62 NSCLC and in the experiment with HCT-116 colon was > 100 µM in each case.
`COc1ccc(/C(=C(\c2ccccc2)[N+](=O)[O-])c2ccc(OCCN3CCCC3)cc2)cc1`: the GI50 in the experiment on MDA-MB-231 breast was 2.76 µM; with SK-MEL-2 melanoma, 2.06 µM; with SF-539 CNS it was 1.39 µM; in the experiment with DU-145 prostate it was 9.52 µM; with MDA-MB-435, 2.85 µM; in the experiment with T-47D breast it was 1.06 µM. In addition, the GI50 is 2.04 µM in the experiment on UACC-257 melanoma, 3.93 µM in the experiment with OVCAR-3 ovarian, 1.89 µM in the experiment with HOP-62 NSCLC and 2.46 µM in the experiment on HCT-116 colon. In addition, the TGI in the experiment on MDA-MB-231 breast came out at 6.98 µM; with SK-MEL-2 melanoma, 5.06 µM; in the experiment with SF-539 CNS, 3.42 µM; in the experiment with DU-145 prostate, 21.5 µM; with MDA-MB-435, 10.5 µM; in the experiment on T-47D breast, 15.2 µM. For the same molecule, the TGI came out at 4.64 µM in the experiment with UACC-257 melanoma, 16.2 µM in the experiment with OVCAR-3 ovarian, 4.94 µM with HOP-62 NSCLC and 13.5 µM in the experiment with HCT-116 colon.
Regarding `COc1cc(/C=N\Nc2ccccc2)ccc1OC(=O)c1ccccc1`, the GI50 in the experiment on MDA-MB-231 breast is 1.91 µM; in the experiment on SK-MEL-2 melanoma it was 2.1 µM; in the experiment with SF-539 CNS, 0.486 µM; in the experiment with DU-145 prostate, 39.4 µM; in the experiment with MDA-MB-435 it was 1.25 µM; in the experiment with T-47D breast it was 0.268 µM. Also, the GI50 in the experiment on UACC-257 melanoma was 7.12 µM; in the experiment with OVCAR-3 ovarian it was 4.19 µM; in the experiment with HOP-62 NSCLC, 8.38 µM; with HCT-116 colon, 5.76 µM. For the same molecule, the TGI in the experiment on MDA-MB-231 breast is 32.2 µM; in the experiment with SK-MEL-2 melanoma, 60 µM; with SF-539 CNS, 2.22 µM; with DU-145 prostate, > 100 µM; in the experiment on MDA-MB-435, > 100 µM; with T-47D breast it was > 85.9 µM. In addition, the TGI with UACC-257 melanoma was > 100 µM; in the experiment on OVCAR-3 ovarian it was > 68.9 µM; in the experiment with HOP-62 NSCLC it was > 64.7 µM; in the experiment on HCT-116 colon, > 100 µM.
